# Measurements from patent US10544143B2, “4-azaindole compounds” (BRISTOL-MYERS SQUIBB COMPANY, priority 2017, dated 2020).
# How the values were obtained:
# human TLR9 = human TLR9 (Homo sapiens (Human), UniProt Q9NR96); assay: TLR9 inhibition reporter assay (HEK-Blue SEAP); details: read-out: TLR9 IC50; HEK-Blue cells overexpressing human TLR9, SEAP reporter, ODN2006 5 nM;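 further: SEAP driven by an IFN-β minimal promoter with NF-κB and AP-1 sites, read after 22 h, compounds dosed 0.05 nM–50 µM, inhibition scaled between agonist plus DMSO and reference-inhibitor wells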
# Sequence of human TLR9 (Q9NR96 26-1032): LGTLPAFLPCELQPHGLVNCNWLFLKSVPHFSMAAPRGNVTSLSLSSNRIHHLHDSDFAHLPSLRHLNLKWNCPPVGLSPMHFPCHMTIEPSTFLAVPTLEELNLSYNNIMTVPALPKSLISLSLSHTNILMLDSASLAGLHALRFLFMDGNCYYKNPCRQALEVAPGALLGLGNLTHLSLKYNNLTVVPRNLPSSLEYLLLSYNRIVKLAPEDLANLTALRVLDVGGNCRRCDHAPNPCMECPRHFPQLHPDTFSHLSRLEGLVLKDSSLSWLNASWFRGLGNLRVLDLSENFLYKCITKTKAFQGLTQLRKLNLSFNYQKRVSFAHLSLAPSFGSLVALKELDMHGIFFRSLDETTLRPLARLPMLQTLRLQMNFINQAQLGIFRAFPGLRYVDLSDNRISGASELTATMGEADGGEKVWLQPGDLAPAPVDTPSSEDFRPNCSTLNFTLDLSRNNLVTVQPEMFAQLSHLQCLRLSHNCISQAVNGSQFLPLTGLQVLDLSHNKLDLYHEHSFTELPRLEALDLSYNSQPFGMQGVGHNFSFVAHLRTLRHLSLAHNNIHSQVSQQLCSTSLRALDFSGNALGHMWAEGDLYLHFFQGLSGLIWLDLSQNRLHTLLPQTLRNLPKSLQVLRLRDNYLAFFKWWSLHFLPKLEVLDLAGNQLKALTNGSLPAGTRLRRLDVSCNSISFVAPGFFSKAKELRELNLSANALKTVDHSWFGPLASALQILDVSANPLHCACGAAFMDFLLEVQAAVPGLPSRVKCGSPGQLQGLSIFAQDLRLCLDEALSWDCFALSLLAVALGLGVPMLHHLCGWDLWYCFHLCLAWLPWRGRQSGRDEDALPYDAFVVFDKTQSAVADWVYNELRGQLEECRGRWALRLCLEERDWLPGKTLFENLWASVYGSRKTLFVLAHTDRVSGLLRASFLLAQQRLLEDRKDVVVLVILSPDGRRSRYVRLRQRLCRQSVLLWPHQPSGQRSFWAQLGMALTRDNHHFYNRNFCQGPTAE
# human TLR7 = human TLR7 (Homo sapiens (Human), UniProt Q9NYK1); assay: TLR7 inhibition reporter assay (HEK-Blue SEAP); type: cell-based; details: HEK-Blue cells overexpressing human TLR7, SEAP reporter, gardiquimod 7.5 μM
# Sequence of human TLR7 (Q9NYK1 27-1049): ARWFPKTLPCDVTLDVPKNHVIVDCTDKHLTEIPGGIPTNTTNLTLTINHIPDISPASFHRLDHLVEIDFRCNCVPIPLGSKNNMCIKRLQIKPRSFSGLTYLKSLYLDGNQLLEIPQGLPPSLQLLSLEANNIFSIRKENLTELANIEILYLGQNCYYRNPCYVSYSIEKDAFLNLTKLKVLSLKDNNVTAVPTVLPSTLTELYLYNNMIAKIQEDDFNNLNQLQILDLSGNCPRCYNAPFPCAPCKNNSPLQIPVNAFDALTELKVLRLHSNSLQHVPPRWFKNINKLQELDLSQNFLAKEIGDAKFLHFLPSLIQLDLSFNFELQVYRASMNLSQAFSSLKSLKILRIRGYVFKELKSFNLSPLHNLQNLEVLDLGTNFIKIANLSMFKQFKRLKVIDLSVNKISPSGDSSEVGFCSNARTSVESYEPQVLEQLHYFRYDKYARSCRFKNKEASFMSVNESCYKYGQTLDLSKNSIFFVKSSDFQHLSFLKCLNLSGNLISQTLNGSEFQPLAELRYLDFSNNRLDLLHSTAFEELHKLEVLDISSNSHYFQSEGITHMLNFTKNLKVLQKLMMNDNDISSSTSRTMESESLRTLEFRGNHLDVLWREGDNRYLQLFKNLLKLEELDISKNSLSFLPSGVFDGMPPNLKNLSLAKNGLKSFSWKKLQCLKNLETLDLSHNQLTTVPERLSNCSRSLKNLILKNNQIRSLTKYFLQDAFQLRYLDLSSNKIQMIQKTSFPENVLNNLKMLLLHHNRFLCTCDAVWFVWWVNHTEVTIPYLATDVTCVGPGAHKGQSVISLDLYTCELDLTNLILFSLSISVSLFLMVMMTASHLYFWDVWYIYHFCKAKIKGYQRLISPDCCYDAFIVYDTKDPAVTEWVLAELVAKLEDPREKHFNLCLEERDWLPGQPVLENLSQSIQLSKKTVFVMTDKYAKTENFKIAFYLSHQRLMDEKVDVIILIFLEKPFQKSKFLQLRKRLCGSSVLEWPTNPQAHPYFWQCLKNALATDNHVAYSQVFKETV
# human TLR8 = human TLR8 (Homo sapiens (Human), UniProt Q9NR97); assay: TLR8 inhibition reporter assay (HEK-Blue SEAP); details: read-out: TLR8 IC50; HEK-Blue cells overexpressing human TLR8, SEAP reporter, R848 15.9 μM;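 further: SEAP driven by IFN-β minimal promoter carrying NF-κB and AP-1 sites, compounds dosed 0.05 nM to 50 µM for 22 h, inhibition scaled between agonist-plus-DMSO and reference-inhibitor wells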
# Sequence of human TLR8 (Q9NR97 27-1041): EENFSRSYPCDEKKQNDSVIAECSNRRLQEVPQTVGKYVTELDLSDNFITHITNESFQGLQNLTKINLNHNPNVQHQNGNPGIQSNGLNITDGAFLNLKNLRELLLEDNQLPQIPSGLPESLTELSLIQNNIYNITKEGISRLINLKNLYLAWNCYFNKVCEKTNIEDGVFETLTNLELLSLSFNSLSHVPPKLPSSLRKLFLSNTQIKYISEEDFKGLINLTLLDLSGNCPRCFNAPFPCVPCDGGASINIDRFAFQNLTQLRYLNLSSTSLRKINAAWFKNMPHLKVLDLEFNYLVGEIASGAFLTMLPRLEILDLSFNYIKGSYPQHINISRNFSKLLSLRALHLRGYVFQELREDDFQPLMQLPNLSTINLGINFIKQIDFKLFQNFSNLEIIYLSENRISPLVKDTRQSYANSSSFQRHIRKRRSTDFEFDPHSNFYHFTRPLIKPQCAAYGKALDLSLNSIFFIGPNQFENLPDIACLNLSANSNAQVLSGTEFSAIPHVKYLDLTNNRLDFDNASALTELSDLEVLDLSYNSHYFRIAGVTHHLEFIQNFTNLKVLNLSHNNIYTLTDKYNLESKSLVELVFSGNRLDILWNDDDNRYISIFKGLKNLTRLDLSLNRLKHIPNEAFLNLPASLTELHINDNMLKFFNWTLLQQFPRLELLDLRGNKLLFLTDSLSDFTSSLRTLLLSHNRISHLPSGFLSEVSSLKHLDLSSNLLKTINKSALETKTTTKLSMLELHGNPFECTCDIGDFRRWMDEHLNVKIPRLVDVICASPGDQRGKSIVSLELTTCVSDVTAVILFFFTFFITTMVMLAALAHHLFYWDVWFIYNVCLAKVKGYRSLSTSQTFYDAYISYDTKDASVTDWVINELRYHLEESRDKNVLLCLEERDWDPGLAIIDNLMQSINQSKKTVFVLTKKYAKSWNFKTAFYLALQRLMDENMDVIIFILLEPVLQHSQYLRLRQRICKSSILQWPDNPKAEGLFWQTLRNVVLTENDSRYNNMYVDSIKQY
# Experimental: HEK-Blue™-cells (Invivogen) overexpressing human TLR7, TLR8 or TLR9 receptors were used for screening inhibitors of these receptors using an inducible SEAP (secreted embryonic alkaline phosphatase) reporter gene under the control of the IFN-β minimal promoter fused to five NF-κB and AP-1-binding sites. Briefly, cells are seeded into Greiner 384 well plates (15000 cells per well for TLR7, 20,000 for TLR8 and 25,000 for TLR9) and then treated with test compounds in DMSO to yield a final dose response concentration range of 0.05 nM-50 μM. After a 30 minute compound pre-treatment at room temperature, the cells are then stimulated with a TLR7 ligand (gardiquimod at a final concentration of 7.5 μM), TLR8 ligand (R848 at a final concentration of 15.9 μM) or TLR9 ligand (ODN2006 at a final concentration of 5 nM) to activate NF-κB and AP-1 which induce the production of SEAP. After a 22 hour incubation at 37° C., 5% CO2, SEAP levels are determined with the addition of HEK-Blue™ Detection reagent (Invivogen), a cell culture medium that allows for detection of SEAP, according to manufacturer's specifications.
SMILES,IC50 (human TLR9) [nM],IC50 (human TLR7) [nM],IC50 (human TLR8) [nM]
Cc1c(-c2[nH]c3ccc(C4CCN(C5COC5)CC4)nc3c2C(C)C)cn2ncnc2c1C [Example 538],8180,2,3.3
CNC(=O)CN1CCC(c2ccc3[nH]c(-c4cn5ncnc5c(C)c4C)c(C(C)C)c3n2)CC1 [Example 539],3320,0.47,0.82
Cc1c(-c2[nH]c3ccc(C4CCN(CC(=O)N(C)C)CC4)nc3c2C(C)C)cn2ncnc2c1C [Example 540],1950,1.1,1.4
Cc1c(-c2[nH]c3ccc(C4CCN(CC(C)(C)O)CC4)nc3c2C(C)C)cn2ncnc2c1C [Example 541],1430,1.2,0.36
Cc1c(-c2[nH]c3ccc(C4CCN(C5COC5)CC4)nc3c2C(C)C)cn(C)c(=O)c1C [Example 542],9240,24,17
Cc1c(-c2[nH]c3ccc(C4CCN(C5CCOCC5)CC4)nc3c2C(C)C)cn(C)c(=O)c1C [Example 543],2280,14,5.3
CNC(=O)CN1CCC(c2ccc3[nH]c(-c4cn(C)c(=O)c(C)c4C)c(C(C)C)c3n2)CC1 [Example 544],5660,11,6.4
Cc1c(-c2[nH]c3ccc(C4CCN(CC(=O)N(C)C)CC4)nc3c2C(C)C)cn(C)c(=O)c1C [Example 545],2460,22,7.5
Cc1c(-c2[nH]c3ccc(C4CCN(CC(C)(C)O)CC4)nc3c2C(C)C)cn(C)c(=O)c1C [Example 546],1380,9.5,1.6
Cc1cc(-c2[nH]c3ccc(C4CCN(CC(C)(C)O)CC4)nc3c2C(C)C)cn2ncnc12 [Example 547],789,0.27,0.55
COc1cc(-c2[nH]c3ccc(C4CCN(CC(C)(C)O)CC4)nc3c2C(C)C)cn2ncnc12 [Example 548],1090,0.71,0.98
COc1cc(-c2[nH]c3ccc(C4CCN(C(=O)CN(C)C)CC4)nc3c2C(C)C)cn2ncnc12 [Example 549],401,1.8,18
Cc1cc(-c2[nH]c3ccc(C4CCN(C(=O)CN(C)C)CC4)nc3c2C(C)C)cn2ncnc12 [Example 550],796,0.87,15
Cc1c(-c2[nH]c3ccc(C4CCN(C(=O)CN(C)C)CC4)nc3c2C(C)C)cn2ncnc2c1C [Example 551],582,0.94,5.5
Cc1cc(-c2[nH]c3ccc(C4CCN(CCS(C)(=O)=O)CC4)nc3c2C(C)C)cn2ncnc12 [Example 552],4100,0.83,2.1
Cc1cc(-c2[nH]c3ccc(C4CCN(CC#N)CC4)nc3c2C(C)C)cn2ncnc12 [Example 553],537,0.63,3.2
COc1cc(-c2[nH]c3ccc(C4CCN(CCS(C)(=O)=O)CC4)nc3c2C(C)C)cn2ncnc12 [Example 554],2860,1.5,2.5
Cc1c(-c2[nH]c3ccc(C4CCN(CCS(C)(=O)=O)CC4)nc3c2C(C)C)cn2ncnc2c1C [Example 556],5080,1.7,1.1
Cc1c(-c2[nH]c3ccc(C4CCN(CC#N)CC4)nc3c2C(C)C)cn2ncnc2c1C [Example 557],440,0.66,1.2
COc1cc(-c2[nH]c3ccc(C4CCN(CC(N)=O)CC4)nc3c2C(C)C)cn2ncnc12 [Example 558],3430,1.2,5.6

SMILES,IC50 (human TLR9) [nM],IC50 (human TLR7) [nM],IC50 (human TLR8) [nM]
Cc1c(-c2[nH]c3ccc(C4CCN(CC(N)=O)CC4)nc3c2C(C)C)cn2ncnc2c1C [Example 560],3820,1.2,1
Cc1cc(-c2[nH]c3ccc(C4CCN(C5CCN(C)C5=O)CC4)nc3c2C(C)C)cn2ncnc12 (stereo not drawn) [Example 561],5650,0.64,3
COc1cc(-c2[nH]c3ccc(C4CCN(C5CCN(C)C5=O)CC4)nc3c2C(C)C)cn2ncnc12 (stereo not drawn) [Example 562],6480,1.9,1.1
Cc1c(-c2[nH]c3ccc(C4CCN(C5CCN(C)C5=O)CC4)nc3c2C(C)C)cn2ncnc2c1C (stereo not drawn) [Example 563],4260,0.83,2.4
CNC(=O)CN1CCC(c2ccc3[nH]c(-c4cn(C)c(=O)c(Cl)c4C)c(C(C)C)c3n2)CC1 [Example 565],3220,8.8,6.9
Cc1c(-c2[nH]c3ccc(C4CCN(C5COC5)CC4)nc3c2C(C)C)cn(C)c(=O)c1Cl [Example 566],19000,24,18
Cc1c(-c2[nH]c3ccc(C4CCN(CC(=O)N(C)C)CC4)nc3c2C(C)C)cn(C)c(=O)c1Cl [Example 567],2320,18,18
CCCN1CCC(c2ccc3[nH]c(-c4cn(C)c(=O)c(Cl)c4C)c(C(C)C)c3n2)CC1 [Example 568],2080,6,3.8
Cc1c(-c2[nH]c3ccc(C4CCN(CC(C)C)CC4)nc3c2C(C)C)cn(C)c(=O)c1Cl [Example 569],2180,11,3
Cc1c(-c2[nH]c3ccc(C4CCN(C(=O)CN(C)C)CC4)nc3c2C(C)C)cn(C)c(=O)c1Cl [Example 570],143,10,57
Cc1cc2[nH]c(-c3cc(C)c4ncnn4c3)c(C(C)C)c2nc1C1CCN(CC(C)(C)O)CC1 [Example 572],1200,4.6,25
COc1cc(-c2[nH]c3cc(F)c(C4CCN(CCS(C)(=O)=O)CC4)nc3c2C(C)C)cn2ncnc12 [Example 573],3230,0.99,9.1
COc1cc(-c2[nH]c3cc(F)c(C4CCN(C5COC5)CC4)nc3c2C(C)C)cn2ncnc12 [Example 574],11900,3,47
Cc1cc2[nH]c(-c3cc(C)c4ncnn4c3)c(C(C)C)c2nc1C1CCN(C2CCOCC2)CC1 [Example 575],1350,0.44,121
COc1cc(-c2[nH]c3cc(F)c(C4CCN(C(=O)CN(C)C)CC4)nc3c2C(C)C)cn2ncnc12 [Example 577],1880,0.69,7.4
Cc1cc2[nH]c(-c3cc(C)c4ncnn4c3)c(C(C)C)c2nc1C1CCN(C2COC2)CC1 [Example 578],4190,0.53,287
COc1cc(-c2[nH]c3cc(C)c(C4CCN(C5COC5)CC4)nc3c2C(C)C)cn2ncnc12 [Example 579],1840,0.39,79
Cc1cc(-c2[nH]c3cc(F)c(C4CCN(CC(=O)N(C)C)CC4)nc3c2C(C)C)cn2ncnc12 [Example 580],1790,0.41,8.7
Cc1cc2[nH]c(-c3cc(C)c4ncnn4c3)c(C(C)C)c2nc1C1CCN(CC(=O)N(C)C)CC1 [Example 581],4920,0.3,79
